Measured values published in a melting point compilation (Tetko et al.; mined from patent text by program, amines drawn as free bases though some values may be those of a salt).

Structure (SMILES)	melting point [°C]
O=S(=O)(O)CCNCCO	180 to 183
CC(C)(C)c1cc(NC(=O)Nc2ccc(Oc3ccccc3)cc2)on1	182 to 184
O=C(NCCCSc1ccccn1)c1cccs1	81 to 82
CCCc1nn(-c2ccc(C(F)(F)F)cn2)cc1CCCOc1cc(CC(=O)O)ccc1F	88 to 89
CCOC(=O)c1ccc(-c2ccc(OCCCCCCCCCCCCBr)cc2)cc1	88.6 to 90.5
CCN(CC)CCNC(=O)c1c2ccccc2nc2ccc(I)cc12	83 to 85
CCn1c(=O)n(CC)c2cc3c(N4CCN(C(=O)Nc5ccc(Oc6ccccc6)cc5)CC4)nncc3cc21	125 to 128
Cc1ccc(S(=O)(=O)Nc2ccc(-c3ccc(S(=O)(=O)n4ccc(C=CC(=O)NO)c4)cc3)cc2)cc1	119 to 126
CCCOc1ccc(C(=O)Nc2ccccc2NC(=O)c2ccc(OCCC)cc2)cc1	195
CCCN(CC)Cc1nc2cc(OC)c(OC)cc2c(-c2ccc(OC)c(OC)c2)c1C(=O)OCC	105 to 106
CONCc1nc2c(N)nc3ccccc3c2n1CC1(O)CCC1	178 to 181
CC(C)C(C(=O)CCC(NC(=O)OCc1ccccc1)C(=O)OCc1ccccc1)C(=O)OC(C)(C)C (stereo not given)	69 to 71
OCc1cn2c(n1)CN=C(c1ccccn1)c1cc(Cl)ccc1-2	206 to 207
O=C(N[C@@H](Cc1ccccc1)C(=O)Oc1ccc([N+](=O)[O-])cc1)OCc1ccccc1	124 to 126
CCCCCCNC(=O)CS(=O)(=O)Nc1c(C(C)C)cccc1C(C)C	125 to 127
CCCCCCCCCCCCC(=O)/C=C/C(=O)O	97.5 to 98.5
O=c1[nH]cc2n1-c1ccc(Cl)cc1C(c1ccccc1F)=NC2	247 to 250
COc1ccc(-c2ccc(C#N)cn2)cc1C=O	197 to 198
Cc1ccc(S(=O)(=O)c2ccc3c(c2)c(CCN(C)C(=O)OC(C)(C)C)cn3C)cc1	143 to 145
Cc1c(C#N)sc2nc(Cc3ccccc3)nc(N3CCOCC3)c12	88 to 90
Nc1ccc(CN2C(=O)C3(COc4cc5c(cc43)OCCO5)c3ccccc32)cn1 (stereo not given)	117 to 119
O=CNCc1ccc(CN2CCN(c3ncccn3)CC2)cc1	97 to 98

Structure (SMILES)	melting point [°C]
COc1ccc(C=CC(=O)NCCc2ccc(OC(C)(C)C(=O)O)cc2)cc1	158 to 159
Cc1cc(C#N)ccc1N1CCN(C(=O)OC(C)(C)C)CC1	127 to 131
COc1cc(Nc2nccc(-c3sc(Nc4ccccc4)nc3C)n2)cc(OC)c1	191 to 194
Cc1cscc1NC(=S)Nc1cc(C(F)(F)F)cc(Cl)c1N	> 310
O=S(=O)(Nc1ccc2c(OCc3csc(-c4ccccc4)n3)cccc2c1)C(F)(F)F	89 to 99
CC(C)(C)C(O)Cn1ccnc1 (stereo not given)	239 to 241
COc1ccc(-c2ccc(-c3ccc(C(=O)O)cc3)cc2-c2ccc3c(c2)C(C)(C)CCC3(C)C)cc1	112 to 115
CC(C)(C)c1cc(C(=O)c2ccco2)cc2c1OCC2(C)C	103 to 104
CC(C)c1cc2sccc2c2c3c([nH]c12)CCNC3	197 to 199
CCCc1ccc(S(=O)(=O)Nc2ccc3ncccc3c2)cc1	180 to 181
COc1cc(COc2nn(Cc3cccnc3)cc2CO)ccc1OCc1nc(-c2ccco2)oc1C	90 to 91
N#CC(C(=O)C(F)(F)C(F)(F)F)c1ccccc1 (stereo not given)	94 to 95
CCOC(=O)C(NC(=O)OC(C)(C)C)c1csc(NC(=O)OCC(Cl)(Cl)Cl)n1 (stereo not given)	94 to 95
CCSc1cc(-c2ccc(Cl)cc2Cl)ccc1C#N	89 to 92
COC(=O)N[C@H](C(=O)N[C@@H](Cc1ccccc1)[C@@H](O)CN(Cc1ccc(-c2nccs2)cc1)NC(=O)OC(C)(C)C)C(C)C	178 to 179
S=C=Nc1ccc(Cl)c(Cl)c1	111 to 113
COc1ccc(C(=O)c2ccc3nc(Cl)nc(-c4cccc(Cl)c4)c3c2)cc1	164
Cc1[nH]cnc1CSCCNc1ncc(Cc2ccccc2)cc1C#N	105 to 106
CN(C)CCNC(=O)c1ccc(-c2nnc(CSCCOc3ccccc3)o2)cc1	94 to 100
N#Cc1ncccc1C(=O)ON=Cc1ccc(Cl)cc1	160
CCCCN(Cc1ccc(-c2ccccc2-c2nnn[nH]2)cc1)c1ncc(C(=O)O)s1	183 to 184
Cn1nnnc1-c1cnc2cc(Cl)c(F)cc2c1O	326 to 330

Further lines, results first:

melting point [°C]	Structure (SMILES)
218	CC(=NNC(=O)C1CC1)c1ccc(Cl)nc1
166 to 168	COc1ccccc1N(CCN1CCC(C(=O)c2ccc(F)cc2)CC1)C(=O)c1ccc([N+](=O)[O-])cc1
317 to 321	CCNC(=O)Nc1nc2cc(-c3cncnc3)cc(C(=O)NCC)n2n1
174	CCOC(=O)C1=NNC(C)=C(C(=O)OC)C1c1cccc([N+](=O)[O-])c1 (stereo not given)
127	COC(=O)CCCc1cc2nc(Cl)ccc2n1S(=O)(=O)c1ccccc1C(F)(F)F
64 to 65	COC(=O)c1cc(OCc2ccc3ccccc3n2)nn1C(C)C
95.7 to 104	CS(=O)(=O)c1ccc(-n2nc(CNC(=O)Nc3ccccc3)cc2-c2ccccc2)cc1
146 to 147	CCCCNc1ncc2ccc(=O)n(C)c2n1
130 to 133	CS(=O)(=O)Nc1cc([C@@H](O)CNC2CCN(c3ccc(CCC(=O)O)cc3)CC2)ccc1O
178 to 183	O=C1NC(=O)c2c1c(-c1ccccc1)cc1c2c2cc(O)ccc2n1CCCN1CCNCC1
67 to 69	CC1CCc2ccc(OCC3CO3)cc2O1 (stereo not given)
117 to 118	O=C(Nc1ccc([N+](=O)[O-])cc1)c1ccc(F)cc1
180 to 182	COC(=O)c1nc2cccc(C(F)(F)F)c2c(O)c1C(=O)OC
93 to 95	CN(C)C1=CCCS(=O)(=O)c2ccc(Cl)cc21
94 to 96	C#CCOC(=O)Oc1ccc2ccc(OC(=O)OCC#C)cc2c1
263 to 265	O=C(O)c1ccc2c(c1)S(=O)(=O)NCN2C1CC1
224 to 227	N=C(N)Nc1nc2ccc(OCc3ccccc3)cc2[nH]1
285 to 288	NCCCNC(=O)c1ccc(-c2nn(-c3ccc(C(=O)O)cc3)c3ccccc23)cc1
120 to 121	COC(CN1CCN(c2cccc(-n3cnc4cc(C(C)=O)ccc43)c2)CC1)=NOC(C)C

melting point [°C]	Structure (SMILES)
> 300	O=C(Nc1ccc(Sc2c(O)c3c(Cl)cc(Cl)cc3[nH]c2=O)cc1)c1cccnc1
40 to 42	CCOC(=O)/C(CC(=O)O)=C(\c1ccc(Cl)cc1)c1ccc(S(C)(=O)=O)cc1
> 300	O=c1[nH]nc(-c2nc3ccccc3o2)[nH]1
168	O=S(=O)(c1ccc2c(Cl)cnc(Cl)c2c1)N1CCC[C@@H]1CO
203 to 205	Cn1nc(C(=O)NCc2ccc(Cl)cc2)c(=O)c2cc(CO)ccc21
113 to 116	CCOC(=O)c1ccc2c(c1)C=C(n1ccnc1)CC2
133 to 135	Cc1c[nH]c(-c2ccnc(NC(=O)c3ccccc3)c2)n1
68 to 70	c1ccc(CN2CC3Cc4ccccc4OC3C2)cc1 (stereo not given)
155	COc1ccc2c(c1)c(=O)oc(=O)n2-c1ccc(OCc2ccccc2)cc1
140 to 145	O=C1OC(O)c2cccc(Cl)c21 (stereo not given)
184 to 185	COc1ccc(NC(=O)c2c(Cl)cccc2Cl)cc1OC1CCCC1
130	CSc1ccc(C2=NC[C@@H](O)[C@H](c3ccccc3)O2)cc1 (racemic)
161 to 162	CC1(C)OC[C@H](COc2nc(S(C)(=O)=O)nc3[nH]nc(-c4ccccc4Cl)c23)O1
251 to 256	O=C(O)c1ccc(Cn2ccc(OCc3ccccc3)c(Br)c2=O)cc1
164 to 165	Cc1nc2ccccc2c(=O)n1CCN1CCC(c2noc3cc(F)ccc23)CC1
155 to 166	N#Cc1sc2cc(NC(=O)OCc3ccccc3)ccc2c1Cl
224	Cc1cc(OCc2ccccc2)cc(C)c1NC(=O)CN1CCN2C(C1)C(=O)NC2(C)C (stereo not given)
162 to 163	Cc1cn(Cc2ccc(F)cc2)cc1C(=O)CC(=O)C(=O)O
148 to 150	O=[N+]([O-])c1ccc(O)c(Cl)c1Cl

melting point [°C]	Structure (SMILES)
152	COC(=O)C1=C(C)NN=C(C(=O)OC2CCCC2)C1c1ccccc1Cl (stereo not given)
163 to 164	COC(=O)C=Cc1cnc(N2CCC[C@H]2CO)nc1NCc1ccc(OC)c(Cl)c1
292 to 293	CCNc1nc(NS(=O)(=O)c2ccc(N)cc2)cc(N2CCC2)n1
150 to 151	O=C(O)C1CCCN(CCC#Cc2ccccc2)C1 (stereo not given)
198 to 200	COc1ccc(C(=O)O)c(COc2ccc(CC(=O)O)cc2)c1
293 to 295	CCCN1NCc2c(C3C(=O)Nc4ccc(C(F)(F)F)cc43)ncnc21 (stereo not given)
168 to 170	CC(=O)n1c(C)cc(=O)n(-c2cc(C(=O)OC(C)C)c(Cl)cc2F)c1=O
199 to 201	OC1C(CF)OC(n2cnc3c(NN4CCCCC4)nc(Cl)nc32)C1O (stereo not given)
206 to 207	O=c1ccn(C2OC(CO)C(O)C2Cl)c(=O)[nH]1 (stereo not given)
184 to 187	CC(O)(c1nc2ccccc2[nH]1)C(F)(F)F (stereo not given)
282 to 283	COc1ccccc1-c1ncc(-c2nnn[nH]2)c(=O)[nH]1
90 to 95	COc1ccc2c(c1)CC(NNc1ncnc3c1ncn3C1OC(CO)C(O)C1O)CO2 (stereo not given)
138 to 140	CCOC(=O)[C@@H](O)[C@@H]1OC(=O)c2cc(OC)c(OCc3ccccc3)cc21
148 to 150	CCOC(=O)c1ccc(N2CCC(N)CC2)nc1
199 to 200	CC(C)(C)OC(=O)NC[C@H]1CC[C@H](CNS(=O)(=O)c2cccc3ccccc23)CC1
126	COc1ccc(C2=NN(Cc3ccc([N+](=O)[O-])cc3)C(=O)CC2)cc1OC
203 to 206	CC(=O)NC1CCc2c([nH]c3ccccc23)C1 (stereo not given)
195 to 196	C[C@@H]1OC(=O)[C@H]2C[C@H]3CCCC[C@@H]3[C@@H](O)[C@@H]12
